# How the values were obtained:
# [1] = Metabolite in female mouse liver microsomes; assay type: in vitro ADME
# [2] = Metabolite in liver microsomes and hepatocytes; assay type: in vitro ADME; settings: male human, monkey, dog, rat, and mouse liver microsomes and hepatocytes
# [3] = Rat pharmacokinetic studies with solutions and spray-dried dispersions; settings: male, rat, in vivo, po, 150 mg/kg
# [4] = Glass transition and recrystallization temperature of amorphous solids; assay type: physicochemical
# Method: Thus, while crystals of Compound A are quite stable, there is a significant barrier to transforming to a crystalline state from an amorphous form. Indeed, a ramped temperature increase of a partially-crystalline sample does eventually lead to a recrystallization event, but not until a temperature of 200-220° C. is achieved. […] As discussed below, this robust resistance to crystallization is preserved even in the presence of water.
# The amorphous form of pure Compound A is robust with a high Tg and even higher recrystallization temperature. The glass transition temperature does decrease under the plasticizing conditions of high humidity. However, the value is still well above the commonly applied 40-50° C. difference between Tg and any temperature the clinical presentation will encounter.
# [5] = Membrane flux experiment (donor/receiver compartments, SIF bile salts); settings: amorphous suspension as donor compartment contents
# Method: A membrane flux experiment was conducted in which a fixed amount of compound was introduced into the donor compartment at various concentrations of the SIF bile salts, and appearance of drug was monitored on the receiver side.
# [6] = 90-minute non-sink dissolution, pH 2 HCl shifted to pH 6.5 SIF; assay type: physicochemical; settings: 1 mg/mL in pH 2 HCl, shift to pH 6.5 SIF at 30 minutes
# Method: FIG. 11 is a series of line graphs showing the dissolution of crystalline vs. amorphous Compound A API. API (1 mg/mL) is present in gastric conditions (pH=2), which is 2× diluted with FaSSIF at 30 minutes to increase the pH to 6.5. (API=active pharmaceutical ingredient; FaSSIF=fasted state simulated intestinal fluid.)
# FIG. 12 is a series of line graphs showing the non-sink dissolution of spray-dried amorphous Compound A produced at multiple scales. API (500 μg/mL) is present in gastric conditions (pH=2), which is 2× Diluted with FaSSIF at 30 minutes to increase the pH to 6.5.
# A 90-minute non-sink dissolution experiment was conducted in which a Compound A suspension was introduced into pH 2 HCl at a final concentration of 1 mg/mL, which was then periodically sampled and prepared for analysis via centrifugation. A shift to pH 6.5 SIF was carried out 30 minutes into the experiment.
# [7] = Stability of amorphous Compound A (spray-dried intermediate); assay type: physicochemical
# Method: The stability of amorphous Compound A was assessed at three stability conditions: 2-8° C.; 25° C./60% RH; and 40° C./75% RH for a period of 12 months.
# During stability testing, amorphous Compound A was stored in wire-tied low-density polyethylene bags placed in heat-induction sealed, high-density polyethylene (HDPE) bottles containing a desiccant canister, and capped with polypropylene-lined closures.
# [8] = after 6 months of storage at 2-8° C.
# [9] = after 12 months at 25° C./60% RH
# [10] = after 12 months at 40° C./75% RH
compound,measurement,setting,value
"N#Cc1ccc(O[C@H]2CC[C@H](NC(=O)c3ccc(N4CCC(CO)CC4)nn3)CC2)cc1Cl [Intermediate 2, N-((1r,4r)-4-(3-chloro-4-cyanophenoxy)cyclohexyl)-6-(4-(hydroxymethyl)piperidin-1-yl)pyridazine-3-carboxamide]",occurrence as metabolite,[1],A process impurity in Intermediate 3 and can be formed as a by-product of the reductive amination in Step 3. This impurity is also a metabolite in female mouse liver microsomes
N#Cc1ccc(O[C@H]2CC[C@H](NC(=O)c3ccc(N4CCC(C(=O)O)CC4)nn3)CC2)cc1Cl [Impurity 1],occurrence as metabolite,[2],"A process impurity resulting from over oxidation of Intermediate 2 in Step 2. This impurity is also a metabolite in male human, monkey, dog, rat, and mouse liver microsomes and hepatocytes"
N#Cc1ccc(O[C@H]2CC[C@H](NC(=O)c3ccc(N4CCC(CN5CCN(c6cc7c(cc6F)C(=O)N(C6CCC(=O)NC6=O)C7=O)CC5)CC4)nn3)CC2)cc1Cl (some centres unmarked) [Spray-Dried Amorphous Compound A],AUC,[3],19400 ng·h/mL
same,Glass Transition Temperature,[4]; Temperature/RH 25/0 (° C./%),146 °C
same,Glass Transition Temperature,[4]; Temperature/RH 40/75 (° C./%),103 °C
same,Flux (μg-min^−1-cm^−2),[5],0.15 μg-min^−1-cm^−2
same,"non-sink dissolution, amorphous vs crystalline (FIG. 11)",[6],Higher concentrations are achieved in the gastric phase of the experiment and sustained in the intestinal phase
same,purity,[7]; [8],95.7%
same,water (major impurity),[7]; [8],0.9%
same,purity,[7]; [9],97.7%
same,water (major impurity),[7]; [9],1.62%
same,purity,[7]; [10],98%
same,"water (major impurity), Karl Fischer titration",[7]; [10],2.16%
same,recrystallization of the amorphous form,"[7]; all three storage conditions, any time during the studies",no evidence of recrystallization

# Source: patent US12043612B2, “Methods of manufacturing a bifunctional compound, ultrapure forms of the bifunctional compound, and dosage forms comprising the same” (Arvinas Operations, Inc., priority 2020, dated 2024)
